Assay results taken from patent publication US20100292231A1, “Indazole Compounds for Treating Inflammatory Disorders, Demyelinating Disorders and Cancers” (priority 2007, published 2010).
Read-outs that look alike come from different tables or passages of the source.

How the values were obtained:
Assay in all cases: SelectScreen kinase specificity survey
Assay type in all cases: biochemical
PAK7 (KIAA1264, PAK5) = biological target: T1, PAK7 (KIAA1264, PAK5) (Homo sapiens, UniProt Q9P286); details: estimated, abridged dose response curve, read-out: Kinase inhibitory activity EC50
T1 construct: purchased Invitrogen (SelectScreen platform)
Procedure, shortened: (§1)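 Optical reporter read-out of substrate phosphorylation, with a substrate unique to each kinase and ATP at 100 micromolar. A 5-increment inhibitor series was fitted by a sigmoid 4-parameter Hill model.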

FGFR4 = biological target: T2, FGFR4 (Homo sapiens, UniProt P22455); details: estimated, abridged dose response curve, read-out: Kinase inhibitory activity EC50
T2 construct: purchased Invitrogen (SelectScreen platform)
Procedure, shortened: as §1

MAP2K6 (MKK6) = biological target: T3, MAP2K6 (MKK6) (Homo sapiens, UniProt P52564); details: estimated, abridged dose response curve, read-out: Kinase inhibitory activity EC50
T3 construct: purchased Invitrogen (SelectScreen platform)
Procedure, shortened: as §1

PRKCD (PKC delta) = biological target: T4, PRKCD (PKC delta) (Homo sapiens, UniProt Q05655); details: estimated, abridged dose response curve, read-out: Kinase inhibitory activity EC50
T4 construct: purchased Invitrogen, Inc. (SelectScreen platform)
T4 sequence (Q05655 whole entry): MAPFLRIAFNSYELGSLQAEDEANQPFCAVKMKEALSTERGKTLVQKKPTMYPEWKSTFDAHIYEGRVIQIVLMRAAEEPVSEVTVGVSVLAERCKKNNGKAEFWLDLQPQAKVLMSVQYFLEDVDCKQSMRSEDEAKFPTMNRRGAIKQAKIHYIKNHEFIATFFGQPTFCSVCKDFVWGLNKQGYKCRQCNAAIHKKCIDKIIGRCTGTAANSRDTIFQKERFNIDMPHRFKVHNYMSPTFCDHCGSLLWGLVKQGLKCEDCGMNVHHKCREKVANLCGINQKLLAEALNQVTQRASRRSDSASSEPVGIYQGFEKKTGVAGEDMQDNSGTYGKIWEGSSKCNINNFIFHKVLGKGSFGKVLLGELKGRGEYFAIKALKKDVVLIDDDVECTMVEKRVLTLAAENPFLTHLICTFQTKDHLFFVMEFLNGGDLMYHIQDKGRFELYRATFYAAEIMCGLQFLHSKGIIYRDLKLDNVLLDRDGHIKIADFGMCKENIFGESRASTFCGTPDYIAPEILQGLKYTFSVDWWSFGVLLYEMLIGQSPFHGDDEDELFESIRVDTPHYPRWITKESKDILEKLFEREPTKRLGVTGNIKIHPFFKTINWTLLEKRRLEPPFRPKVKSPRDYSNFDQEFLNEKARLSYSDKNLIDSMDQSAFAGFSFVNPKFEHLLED
Procedure, shortened: as §1

DYRK1B = biological target: T5, DYRK1B (Homo sapiens, UniProt Q9Y463); details: estimated, abridged dose response curve, read-out: Kinase inhibitory activity EC50
T5 construct: purchased Invitrogen (SelectScreen platform)
Procedure, shortened: as §1

GRK7 = biological target: T6, GRK7 (Homo sapiens, UniProt Q8WTQ7)
T6 construct: purchased Invitrogen (SelectScreen platform)
T6 sequence (Q8WTQ7 whole entry): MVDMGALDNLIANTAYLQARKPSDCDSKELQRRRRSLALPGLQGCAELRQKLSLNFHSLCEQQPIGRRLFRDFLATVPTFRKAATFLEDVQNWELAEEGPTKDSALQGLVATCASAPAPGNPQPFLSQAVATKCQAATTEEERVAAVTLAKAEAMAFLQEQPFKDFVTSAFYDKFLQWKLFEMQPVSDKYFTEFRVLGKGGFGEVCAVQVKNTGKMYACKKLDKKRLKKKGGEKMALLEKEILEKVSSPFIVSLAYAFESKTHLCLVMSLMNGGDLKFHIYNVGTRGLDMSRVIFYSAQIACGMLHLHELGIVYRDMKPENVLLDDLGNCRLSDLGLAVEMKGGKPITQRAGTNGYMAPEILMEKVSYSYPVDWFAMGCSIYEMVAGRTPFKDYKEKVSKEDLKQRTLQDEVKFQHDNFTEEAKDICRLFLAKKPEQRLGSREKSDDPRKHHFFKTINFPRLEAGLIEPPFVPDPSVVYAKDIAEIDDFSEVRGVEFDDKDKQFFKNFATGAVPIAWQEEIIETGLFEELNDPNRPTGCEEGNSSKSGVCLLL
Procedure, shortened: as §1

PAK3 = biological target: T7, PAK3 (Homo sapiens, UniProt O75914); details: estimated, abridged dose response curve, read-out: Kinase inhibitory activity EC50
T7 construct: purchased Invitrogen (SelectScreen platform)
Procedure, shortened: as §1

RPS6KA5 (MSK1) = biological target: T8, RPS6KA5 (MSK1) (Homo sapiens, UniProt O75582); details: estimated, abridged dose response curve, read-out: Kinase inhibitory activity EC50
T8 construct: purchased Invitrogen, Inc. (SelectScreen platform)
Procedure, shortened: as §1

MAPK1 (ERK2) = biological target: T9, MAPK1 (ERK2) (Homo sapiens, UniProt P28482); details: estimated, abridged dose response curve, read-out: Kinase inhibitory activity EC50
T9 construct: purchased Invitrogen (SelectScreen platform)
T9 sequence (P28482 whole entry): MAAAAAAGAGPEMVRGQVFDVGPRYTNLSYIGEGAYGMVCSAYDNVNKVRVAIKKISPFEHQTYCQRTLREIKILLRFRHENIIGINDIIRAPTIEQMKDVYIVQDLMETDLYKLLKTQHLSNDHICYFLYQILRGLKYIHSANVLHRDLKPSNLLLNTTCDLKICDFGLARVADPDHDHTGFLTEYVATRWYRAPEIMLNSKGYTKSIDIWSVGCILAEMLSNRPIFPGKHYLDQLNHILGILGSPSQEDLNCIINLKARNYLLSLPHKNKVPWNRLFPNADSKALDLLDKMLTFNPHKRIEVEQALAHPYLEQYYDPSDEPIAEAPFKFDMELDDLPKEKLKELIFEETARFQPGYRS
Procedure, shortened: as §1

FGFR3 K650E = biological target: T10, FGFR3 K650E (Homo sapiens, UniProt P22607, K650E); details: estimated, abridged dose response curve, read-out: Kinase inhibitory activity EC50
T10 construct: purchased Invitrogen (SelectScreen platform)
Procedure, shortened: as §1

FES (FPS) = biological target: T11, FES (FPS) (Homo sapiens, UniProt P07332); details: estimated, abridged dose response curve, read-out: Kinase inhibitory activity EC50
T11 construct: purchased Invitrogen (SelectScreen service)
T11 sequence (P07332 whole entry): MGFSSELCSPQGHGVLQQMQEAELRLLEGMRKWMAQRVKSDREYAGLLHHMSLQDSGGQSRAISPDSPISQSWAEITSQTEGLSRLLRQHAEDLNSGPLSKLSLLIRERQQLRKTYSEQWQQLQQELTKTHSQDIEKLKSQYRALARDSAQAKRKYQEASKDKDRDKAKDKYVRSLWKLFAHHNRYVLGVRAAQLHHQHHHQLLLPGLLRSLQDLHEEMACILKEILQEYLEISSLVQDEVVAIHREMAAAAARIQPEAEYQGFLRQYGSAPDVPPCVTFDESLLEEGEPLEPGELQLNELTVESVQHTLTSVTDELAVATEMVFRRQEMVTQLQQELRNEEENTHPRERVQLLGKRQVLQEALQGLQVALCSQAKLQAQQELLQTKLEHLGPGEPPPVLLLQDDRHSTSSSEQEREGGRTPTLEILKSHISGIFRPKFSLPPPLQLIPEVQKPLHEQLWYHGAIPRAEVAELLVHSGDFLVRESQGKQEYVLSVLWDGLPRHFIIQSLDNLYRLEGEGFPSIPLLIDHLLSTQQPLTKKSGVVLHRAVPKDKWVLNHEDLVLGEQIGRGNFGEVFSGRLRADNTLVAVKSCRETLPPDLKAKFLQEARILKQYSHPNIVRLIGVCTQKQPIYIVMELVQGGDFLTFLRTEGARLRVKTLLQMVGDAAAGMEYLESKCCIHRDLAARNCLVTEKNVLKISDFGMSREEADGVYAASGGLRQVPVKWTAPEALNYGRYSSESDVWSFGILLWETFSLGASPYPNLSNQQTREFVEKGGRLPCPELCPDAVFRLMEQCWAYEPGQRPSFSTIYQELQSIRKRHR
Procedure, shortened: as §1

PRKD1 (PKC mu, PKD1) = biological target: T12, PRKD1 (PKC mu, PKD1) (Homo sapiens, UniProt Q15139); details: estimated, abridged dose response curve, read-out: Kinase inhibitory activity EC50
T12 construct: purchased Invitrogen, Inc. (SelectScreen platform)
T12 sequence (Q15139 whole entry): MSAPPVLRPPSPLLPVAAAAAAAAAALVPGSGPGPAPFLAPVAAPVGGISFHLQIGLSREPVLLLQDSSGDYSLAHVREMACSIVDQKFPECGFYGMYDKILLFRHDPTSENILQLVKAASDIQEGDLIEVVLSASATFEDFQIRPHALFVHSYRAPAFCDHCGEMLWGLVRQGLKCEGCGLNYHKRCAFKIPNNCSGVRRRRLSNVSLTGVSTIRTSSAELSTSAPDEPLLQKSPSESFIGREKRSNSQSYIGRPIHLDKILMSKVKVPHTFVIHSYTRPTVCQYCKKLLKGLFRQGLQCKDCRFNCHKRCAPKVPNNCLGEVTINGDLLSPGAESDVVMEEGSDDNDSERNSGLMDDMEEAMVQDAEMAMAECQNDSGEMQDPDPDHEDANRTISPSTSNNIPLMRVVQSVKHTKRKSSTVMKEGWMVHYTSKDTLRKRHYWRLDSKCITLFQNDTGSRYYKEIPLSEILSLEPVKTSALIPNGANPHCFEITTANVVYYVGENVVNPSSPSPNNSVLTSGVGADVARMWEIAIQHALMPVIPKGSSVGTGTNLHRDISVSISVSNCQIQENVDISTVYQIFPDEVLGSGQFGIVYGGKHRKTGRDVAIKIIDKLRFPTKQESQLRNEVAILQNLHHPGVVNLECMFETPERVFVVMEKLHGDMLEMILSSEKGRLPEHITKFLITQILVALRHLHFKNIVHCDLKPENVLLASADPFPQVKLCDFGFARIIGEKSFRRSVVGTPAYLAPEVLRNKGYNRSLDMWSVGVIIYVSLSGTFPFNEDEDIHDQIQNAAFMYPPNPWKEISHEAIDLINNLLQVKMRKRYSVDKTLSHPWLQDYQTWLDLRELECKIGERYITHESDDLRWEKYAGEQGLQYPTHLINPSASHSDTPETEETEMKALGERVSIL
Procedure, shortened: as §1

ROS1 (ROS) = biological target: T13, ROS1 (ROS) (Homo sapiens, UniProt P08922); details: estimated, abridged dose response curve, read-out: Kinase inhibitory activity EC50
T13 construct: purchased Invitrogen (SelectScreen)
Procedure, shortened: as §1

CAMK4 (CaMKIV) = biological target: T14, CAMK4 (CaMKIV) (Homo sapiens, UniProt Q16566); details: estimated, abridged dose response curve, read-out: Kinase inhibitory activity EC50
T14 construct: purchased Invitrogen, Inc. (SelectScreen platform)
Procedure, shortened: as §1

MAPK11 (p38 beta) = biological target: T15, MAPK11 (p38 beta) (Homo sapiens, UniProt Q15759); details: estimated, abridged dose response curve, read-out: Kinase inhibitory activity EC50
T15 construct: purchased Invitrogen (SelectScreen platform)
T15 sequence (Q15759 whole entry): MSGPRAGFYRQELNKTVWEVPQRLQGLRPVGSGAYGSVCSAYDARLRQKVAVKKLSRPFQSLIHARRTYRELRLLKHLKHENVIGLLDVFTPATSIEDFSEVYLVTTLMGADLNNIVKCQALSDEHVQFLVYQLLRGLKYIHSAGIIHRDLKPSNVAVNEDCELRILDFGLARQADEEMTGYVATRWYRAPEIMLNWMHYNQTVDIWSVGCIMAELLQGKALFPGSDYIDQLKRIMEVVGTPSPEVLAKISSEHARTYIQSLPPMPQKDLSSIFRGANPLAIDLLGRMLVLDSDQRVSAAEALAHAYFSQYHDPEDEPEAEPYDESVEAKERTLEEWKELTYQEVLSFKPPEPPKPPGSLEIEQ
Procedure, shortened: as §1

EPHA4 = biological target: T16, EPHA4 (Homo sapiens, UniProt P54764); details: estimated, abridged dose response curve, read-out: Kinase inhibitory activity EC50
T16 construct: purchased Invitrogen (SelectScreen service)
Procedure, shortened: as §1

ROCK2 = biological target: T17, ROCK2 (Homo sapiens, UniProt O75116); details: estimated, abridged dose response curve, read-out: Kinase inhibitory activity EC50
T17 construct: purchased Invitrogen (SelectScreen platform)
Procedure, shortened: as §1

PRKCQ (PKC theta) = biological target: T18, PRKCQ (PKC theta) (Homo sapiens, UniProt Q04759); details: estimated, abridged dose response curve, read-out: Kinase inhibitory activity EC50
T18 construct: purchased Invitrogen, Inc. (SelectScreen platform)
Procedure, shortened: as §1

CAMK2D (CaMKII delta) = biological target: T19, CAMK2D (CaMKII delta) (Homo sapiens, UniProt Q13557); details: estimated, abridged dose response curve, read-out: Kinase inhibitory activity EC50
T19 construct: purchased Invitrogen, Inc. (SelectScreen platform)
Procedure, shortened: as §1

CHEK1 (CHK1) = biological target: T20, CHEK1 (CHK1) (Homo sapiens, UniProt O14757); details: estimated, abridged dose response curve, read-out: Kinase inhibitory activity EC50
T20 construct: purchased Invitrogen, Inc. (SelectScreen platform)
T20 sequence (O14757 whole entry): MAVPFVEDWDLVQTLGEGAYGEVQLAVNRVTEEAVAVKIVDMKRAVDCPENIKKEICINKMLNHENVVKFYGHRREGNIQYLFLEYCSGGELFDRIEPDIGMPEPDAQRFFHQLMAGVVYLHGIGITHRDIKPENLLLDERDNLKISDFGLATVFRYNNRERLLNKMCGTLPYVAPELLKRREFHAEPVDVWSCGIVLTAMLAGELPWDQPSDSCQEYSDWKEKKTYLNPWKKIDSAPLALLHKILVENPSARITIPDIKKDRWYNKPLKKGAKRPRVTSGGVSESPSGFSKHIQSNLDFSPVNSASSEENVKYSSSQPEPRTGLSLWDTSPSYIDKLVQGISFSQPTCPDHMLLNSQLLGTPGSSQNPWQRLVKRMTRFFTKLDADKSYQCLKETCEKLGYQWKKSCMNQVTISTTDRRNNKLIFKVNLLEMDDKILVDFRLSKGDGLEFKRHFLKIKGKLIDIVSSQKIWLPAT
Procedure, shortened: as §1

PIM1 = biological target: T21, PIM1 (Homo sapiens, UniProt P11309); details: estimated, abridged dose response curve, read-out: Kinase inhibitory activity EC50
T21 construct: purchased Invitrogen, Inc. (SelectScreen platform)
T21 sequence (P11309 whole entry): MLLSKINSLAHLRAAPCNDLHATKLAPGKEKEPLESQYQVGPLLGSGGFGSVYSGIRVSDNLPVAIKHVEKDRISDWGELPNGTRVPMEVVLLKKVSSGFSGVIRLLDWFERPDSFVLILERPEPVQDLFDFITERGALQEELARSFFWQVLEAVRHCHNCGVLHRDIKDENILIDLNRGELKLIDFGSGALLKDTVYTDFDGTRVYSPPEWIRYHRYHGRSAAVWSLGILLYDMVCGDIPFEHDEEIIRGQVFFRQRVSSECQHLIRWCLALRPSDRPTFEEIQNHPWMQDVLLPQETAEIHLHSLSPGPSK
Procedure, shortened: as §1

MYLK2 (skMLCK) = biological target: T22, MYLK2 (skMLCK) (Homo sapiens, UniProt Q9H1R3); details: estimated, abridged dose response curve; for EC50: read-out: Kinase inhibitory activity EC50
T22 construct: purchased Invitrogen, Inc. (SelectScreen platform)
Procedure, shortened: as §1

PRKG2 (PKG2) = biological target: T23, PRKG2 (PKG2) (Homo sapiens, UniProt Q13237); details: estimated, abridged dose response curve, read-out: Kinase inhibitory activity EC50
T23 construct: purchased Invitrogen, Inc. (SelectScreen platform)
Procedure, shortened: as §1

AXL = biological target: T24, AXL (Homo sapiens, UniProt P30530); details: estimated, abridged dose response curve, read-out: Kinase inhibitory activity EC50
T24 construct: purchased Invitrogen (SelectScreen service)
Procedure, shortened: as §1

ABL1 E255K = biological target: T25, ABL1 E255K (Homo sapiens, UniProt P00519, E255K); details: estimated, abridged dose response curve, read-out: Kinase inhibitory activity EC50
T25 construct: purchased Invitrogen (SelectScreen platform)
Procedure, shortened: as §1

FGR = biological target: T26, FGR (Homo sapiens, UniProt P09769); details: estimated, abridged dose response curve, read-out: Kinase inhibitory activity EC50
T26 construct: purchased Invitrogen (SelectScreen)
T26 sequence (P09769 whole entry): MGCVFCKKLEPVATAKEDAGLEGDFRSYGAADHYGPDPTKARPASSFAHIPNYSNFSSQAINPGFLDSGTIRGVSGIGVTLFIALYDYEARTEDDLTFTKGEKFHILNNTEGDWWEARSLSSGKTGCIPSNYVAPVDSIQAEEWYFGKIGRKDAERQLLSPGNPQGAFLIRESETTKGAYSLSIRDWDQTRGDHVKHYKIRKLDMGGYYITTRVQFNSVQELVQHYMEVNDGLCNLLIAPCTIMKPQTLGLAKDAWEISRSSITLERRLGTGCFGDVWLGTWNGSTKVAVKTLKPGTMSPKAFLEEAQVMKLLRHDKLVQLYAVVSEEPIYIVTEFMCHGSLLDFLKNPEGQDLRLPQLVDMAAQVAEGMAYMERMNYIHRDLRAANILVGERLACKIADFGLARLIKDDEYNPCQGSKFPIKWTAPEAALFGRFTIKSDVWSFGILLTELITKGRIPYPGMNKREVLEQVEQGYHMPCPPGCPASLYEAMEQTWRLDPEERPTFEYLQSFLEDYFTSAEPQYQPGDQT
Procedure, shortened: as §1

INSRR (IRR) = biological target: T27, INSRR (IRR) (Homo sapiens, UniProt P14616); details: estimated, abridged dose response curve, read-out: Kinase inhibitory activity EC50
T27 construct: purchased Invitrogen (SelectScreen platform)
Procedure, shortened: as §1

Compound	EC50 (PAK7 (KIAA1264, PAK5)) [µM]	EC50 (FGFR4) [µM]	EC50 (MAP2K6 (MKK6)) [µM]	EC50 (PRKCD (PKC delta)) [µM]	EC50 (DYRK1B) [µM]	EC50 (PAK3) [µM]	EC50 (RPS6KA5 (MSK1)) [µM]	EC50 (MAPK1 (ERK2)) [µM]	EC50 (FGFR3 K650E) [µM]	EC50 (FES (FPS)) [µM]	EC50 (PRKD1 (PKC mu, PKD1)) [µM]	EC50 (ROS1 (ROS)) [µM]	EC50 (CAMK4 (CaMKIV)) [µM]	EC50 (MAPK11 (p38 beta)) [µM]	EC50 (EPHA4) [µM]	EC50 (ROCK2) [µM]	EC50 (PRKCQ (PKC theta)) [µM]	EC50 (CAMK2D (CaMKII delta)) [µM]	EC50 (CHEK1 (CHK1)) [µM]	EC50 (PIM1) [µM]	also measured
CN(C)CCCNc1ccc2ncn3c4ccc5[nH]ncc5c4c(=O)c1c23 [Compound (IV)]	> 5	> 5	> 5	> 5	0.82	> 5	> 5	> 5	> 5	2.25	0.494	2.66	> 5	> 5	> 5	0.963	> 5	0.218	> 5	3.42	EC50 (GRK7; GRK7, estimated, abridged dose response curve, read-out: Kinase inhibitory activity EC50): > 5 µM; Kinase inhibitory activity EC50 (MYLK2 (skMLCK)): low nM; EC50 (MYLK2 (skMLCK)): 0.015 µM; EC50 (PRKG2 (PKG2)): 1.91 µM; EC50 (AXL): 4.44 µM; EC50 (ABL1 E255K): 3.72 µM; EC50 (FGR): 0.367 µM; EC50 (INSRR (IRR)): 1.15 µM
CCN(CC)CCNc1ccc2ncn3c4ccc(O)cc4c(=O)c1c23 [Symadex, 5-(2-(diethylamino)ethylamino)-8-hydroxy-6H-imidazo[4,5,1-de]acridin-6-one, reference compound]	> 5	> 5	> 5	> 5	0.991	> 5	> 5	> 5	> 5	1.05	0.217	> 5	> 5	> 5	> 5	> 5	> 5	2.06	> 5	0.959	EC50 (GRK7): > 5 µM; EC50 (MYLK2 (skMLCK)): 0.041 µM; EC50 (PRKG2 (PKG2)): 2.85 µM; EC50 (AXL): 3.77 µM; EC50 (ABL1 E255K): > 5 µM; EC50 (FGR): 1.27 µM; EC50 (INSRR (IRR)): > 5 µM
